# Experimental data from patent publication US20100216751A1 (priority 2007, published 2010).
# Where a name gives a salt, the structure may show the parent alone.
# Experiment: Solubility of bevirimat and bevirimat dimeglumine in single vehicles
# Conditions: in 100% water, 100% saline, 100% dextrose, 100% PEG 400, and 25% Poloxamer 188
smiles,measurement,value
"C=C(C)[C@@H]1CC[C@]2(C(=O)O)CC[C@]3(C)[C@H](CC[C@@H]4[C@@]5(C)CC[C@H](OC(=O)CC(C)(C)C(=O)O)C(C)(C)[C@@H]5CC[C@]43C)[C@@H]12 [Bevirimat dimeglumine, di-N-methylglucamine salt of 3-O-(3′,3′-dimethylsuccinyl)betulinic acid]",solubility (in words),limited solubility
